The results in this text go back to US20250115597A1, “TYK2 INHIBITORS AND COMPOSITIONS AND METHODS THEREOF” (LYNK PHARMACEUTICALS CO. LTD., priority 2021, published 2025).

In experiment [1] the target is T1, TYK2-JH2 domain (Homo sapiens, UniProt P29597).
T1 construct: IC50 on JH2 domain activity (nM)
Nature of the experiment: Binding activity test for JH2 domain of TYK2 (Tb-antibody/tracer FRET). The settings on record: for JAK1/TYK2 selectivity: ratio JAK1-JH2 IC50 / TYK2-JH2 IC50. In outline:
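FRET read-out after 60 min at 25° C plus overnight at 4° C; tracer displacement detected via Tb-labelled antibody on the JH2 domain. Dose-response used 11 points at 3-fold dilution.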

For experiment [2], the target named is T2, JAK1-JH2 domain (Homo sapiens, UniProt P23458).
T2 construct: IC50 on JH2 domain activity (nM)
Nature of the experiment: Binding activity test for JH2 domain of JAK1 (Tb-antibody/tracer FRET). The method, then:
Binding Activity Test for […] Domain of JAK1 and TYK2 The compounds are prepared in DMSO for 200× top dose, then serial dilute it with 27-fold for 3 more points. Add 8 μL/well in echo source plate, echo will add 75 nL/well with 3-fold serial dilution for 11 points in assay plate. 75 nL DMSO for high control and low control. […] For low control, add 5 μL/well assay buffer. And then spin down at 1000 rpm and centrifuge for 30 seconds. After enzyme system prepared, add 5 μL of Tb-antibody solution into each wells of assay plate. Spin down at 1000 rpm and centrifuge for 30 sec. After Tb-antibody added, also add 5 μL of tracer into the assay plate. Spin down at 1000 rpm and centrifuge for 30 sec. Incubate for 60 mins at 25° C. firstly and then continue to incubate the plate at 4° C. overnight. Read by envision in FRET mode. The Luminescence value was recorded by a multi-label reader Envision (PerkinElmer).

The target in experiment [3] is T3, Ba/F3-FL-TYK2-P760L cells (Homo sapiens, UniProt P29597, P760L, cells depend on it).
T3 construct: BaF3-FL-T2P760L (nM)
Nature of the experiment: Anti-proliferative assay, Ba/F3-FL-TYK2-P760L cells (Cell-Titer Glo). The settings on record: 72 h, read-out: BaF3-FL-T2P760L IC50. The format is cell-based. The gist of the method: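 Compound exposure ran 72 h at 37 °C in 5% CO2 across nine 3-fold concentrations from a 20 μM top dose, added 24 h after seeding 2000 cells/well.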

T1 sequence (P29597 589-875 limits assumed): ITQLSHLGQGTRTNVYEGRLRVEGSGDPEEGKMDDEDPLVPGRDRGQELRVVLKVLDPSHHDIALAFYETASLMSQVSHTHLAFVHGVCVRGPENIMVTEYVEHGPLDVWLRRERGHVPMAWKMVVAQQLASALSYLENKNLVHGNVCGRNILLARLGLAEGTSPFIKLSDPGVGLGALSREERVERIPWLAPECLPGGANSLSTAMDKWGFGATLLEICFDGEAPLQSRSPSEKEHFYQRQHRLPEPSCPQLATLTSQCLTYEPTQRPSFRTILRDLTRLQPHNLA
T2 sequence (P23458 583-855 limits assumed): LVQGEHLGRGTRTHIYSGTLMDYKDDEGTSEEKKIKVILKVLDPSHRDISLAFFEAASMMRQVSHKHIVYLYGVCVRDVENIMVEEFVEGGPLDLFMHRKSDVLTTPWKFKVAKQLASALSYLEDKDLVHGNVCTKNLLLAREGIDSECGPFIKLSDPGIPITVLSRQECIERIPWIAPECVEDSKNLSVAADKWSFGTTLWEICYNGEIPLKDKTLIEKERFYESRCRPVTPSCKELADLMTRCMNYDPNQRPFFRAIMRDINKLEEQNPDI
T3 sequence (P29597 whole entry P760L): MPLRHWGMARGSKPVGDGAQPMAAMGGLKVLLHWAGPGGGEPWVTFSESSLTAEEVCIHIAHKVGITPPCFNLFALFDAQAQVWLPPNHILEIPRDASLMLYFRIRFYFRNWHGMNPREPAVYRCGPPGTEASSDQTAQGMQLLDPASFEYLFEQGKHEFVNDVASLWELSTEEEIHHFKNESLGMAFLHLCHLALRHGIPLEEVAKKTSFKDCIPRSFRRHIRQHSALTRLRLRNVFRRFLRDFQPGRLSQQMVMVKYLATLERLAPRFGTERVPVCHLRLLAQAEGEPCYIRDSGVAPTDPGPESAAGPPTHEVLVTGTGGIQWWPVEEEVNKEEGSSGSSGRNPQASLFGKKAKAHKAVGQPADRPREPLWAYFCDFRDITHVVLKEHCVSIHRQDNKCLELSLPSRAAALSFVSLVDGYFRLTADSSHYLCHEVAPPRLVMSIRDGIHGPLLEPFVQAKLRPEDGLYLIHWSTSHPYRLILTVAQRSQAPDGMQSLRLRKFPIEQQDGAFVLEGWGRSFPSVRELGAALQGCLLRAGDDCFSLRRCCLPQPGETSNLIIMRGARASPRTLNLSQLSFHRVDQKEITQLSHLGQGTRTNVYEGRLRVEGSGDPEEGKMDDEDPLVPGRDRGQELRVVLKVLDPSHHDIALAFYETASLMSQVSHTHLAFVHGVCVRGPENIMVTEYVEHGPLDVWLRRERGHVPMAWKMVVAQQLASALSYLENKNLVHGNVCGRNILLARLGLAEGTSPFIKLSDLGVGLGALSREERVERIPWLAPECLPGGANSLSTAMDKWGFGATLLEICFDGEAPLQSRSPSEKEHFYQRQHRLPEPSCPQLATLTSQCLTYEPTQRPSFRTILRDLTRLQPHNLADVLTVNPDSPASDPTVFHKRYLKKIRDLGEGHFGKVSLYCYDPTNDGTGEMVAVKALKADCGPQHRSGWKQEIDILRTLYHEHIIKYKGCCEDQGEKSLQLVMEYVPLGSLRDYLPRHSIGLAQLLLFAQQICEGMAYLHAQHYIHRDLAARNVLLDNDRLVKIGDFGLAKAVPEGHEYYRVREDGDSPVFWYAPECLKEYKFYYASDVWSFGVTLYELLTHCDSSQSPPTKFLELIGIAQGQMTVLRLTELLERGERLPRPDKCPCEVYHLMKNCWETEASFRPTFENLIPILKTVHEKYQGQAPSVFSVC

On to `[2H]C([2H])([2H])NC(=O)c1cnc(NC(=O)C2CC2)cc1Nc1ncc2cnn(CC(C)(F)F)c2c1OC` [Example 276, 6-(Cyclopropanecarboxamido)-4-((1-(2,2-difluoropropyl)-7-methoxy-1H-pyrazolo[4,3-c]pyridin-6-yl)amino)-N-(methyl-d3)nicotinamide], for which, in experiment [1], the IC50 came to 0.000253 µM and the JAK1/TYK2 selectivity was determined as 436.1. Besides, the half-maximal inhibitory concentration (IC50) in experiment [2] worked out at 0.11 µM. Also, the GI50 in experiment [3] came to 0.0882 µM.

In the case of `[2H]C([2H])([2H])NC(=O)c1cnc(NC(C)=O)cc1Nc1ccc2cnn(CC)c2c1OC` [Example 230, 6-Acetamido-4-((1-ethyl-7-methoxy-1H-indazol-6-yl)amino)-N-(methyl-d3)nicotinamide], the values for the IC50 in experiment [1] and in experiment [2] were 0.00301 µM and 0.0587 µM, respectively. Further, the JAK1/TYK2 selectivity in experiment [1] stood at 19.5. Moreover, the GI50 in experiment [3] came out at 0.479 µM.

As for `[2H]C([2H])([2H])NC(=O)c1cnc(NC(=O)C2CC2)cc1Nc1nn(CCC)c2ccn(CC(F)(F)F)c(=O)c12` [Example 208, 6-(Cyclopropanecarboxamido)-N-(methyl-d3)-4-((4-oxo-1-propyl-5-(2,2,2-trifluoroethyl)-4,5-dihydro-1H-pyrazolo[4,3-c]pyridin-3-yl)amino)nicotinamide], the IC50 in experiment [1] is 0.000248 µM; in experiment [2], 0.0347 µM. For the same compound, the JAK1/TYK2 selectivity in experiment [1] is given as 140.1. Further, in experiment [3], the GI50 amounted to 0.0646 µM.

As for `[2H]C([2H])([2H])NC(=O)c1cnc(NC(=O)C2CC2)cc1Nc1ccn2ncc(F)c2c1OC` [Example 253, 6-(Cyclopropanecarboxamido)-4-((3-fluoro-4-methoxypyrazolo[1,5-a]pyridin-5-yl)amino)-N-(methyl-d3)nicotinamide], in experiment [1], the IC50 was determined as 0.000783 µM and the JAK1/TYK2 selectivity is reported as 24.33. In experiment [2], this compound displayed an IC50 of 0.019 µM. Moreover, in experiment [3], the GI50 was determined as 0.232 µM.

As for `[2H]C([2H])([2H])NC(=O)c1cnc(NC(=O)C2CC2)cc1Nc1ccc2cnn(C(C)C#N)c2c1OC` (single isomer, unassigned) [Example 249A, (R*)-4-((1-(1-cyanoethyl)-7-methoxy-1H-indazol-6-yl)amino)-6-(cyclopropanecarboxamido)-N-(methyl-d3)nicotinamide], in experiment [1], the IC50 amounted to 0.000715 µM and the JAK1/TYK2 selectivity is reported as 25.15. This compound also displayed an IC50 in experiment [2] of 0.018 µM. Moreover, in experiment [3], the GI50 came to 0.495 µM.

Take `[2H]C([2H])([2H])NC(=O)c1cnc(NC(=O)C2CC2)cc1Nc1ncc2cnn(C3CC3)c2c1OC` [Example 267, 6-(Cyclopropanecarboxamido)-4-((1-cyclopropyl-7-methoxy-1H-pyrazolo[4,3-c]pyridin-6-yl)amino)-N-(methyl-d3)nicotinamide]: in experiment [1], the IC50 is 0.000181 µM and the JAK1/TYK2 selectivity is reported as 51.1. For the same compound, the IC50 in experiment [2] was 0.00925 µM. In experiment [3], the GI50 was 0.227 µM.

Consider `[2H]C([2H])([2H])NC(=O)c1cnc(NC(=O)C2CC2)cc1Nc1ccn2ncc(C(C)C#N)c2c1OC` (single isomer, unassigned) [Example 251A, (R*)-4-((3-(1-cyanoethyl)-4-methoxypyrazolo[1,5-a]pyridin-5-yl)amino)-6-(cyclopropanecarboxamido)-N-(methyl-d3)nicotinamide], for which the IC50 in experiment [1] worked out at 0.00103 µM; in experiment [2], 0.0972 µM. In experiment [1], the JAK1/TYK2 selectivity is listed as 94.03. Moreover, the GI50 in experiment [3] came out at 0.541 µM.

Turning to `[2H]C([2H])([2H])NC(=O)c1cnc(NC(=O)C2CC2)cc1Nc1ccc2cnn(C(C)C#N)c2c1OC` (single isomer, unassigned) [Example 249B, (S*)-4-((1-(1-cyanoethyl)-7-methoxy-1H-indazol-6-yl)amino)-6-(cyclopropanecarboxamido)-N-(methyl-d3)nicotinamide], the IC50 in experiment [1] worked out at 0.000738 µM; in experiment [2] it was 0.029 µM. In addition, the JAK1/TYK2 selectivity in experiment [1] is on record as 39.25. Further, in experiment [3], the GI50 amounted to 0.342 µM.

On to `[2H]C([2H])([2H])NC(=O)c1cnc(NC(=O)C2CC2)cc1Nc1cn(CC(F)(F)F)c2ccn(CC)c(=O)c12` [Example 209, 6-(Cyclopropanecarboxamido)-4-((5-ethyl-4-oxo-1-(2,2,2-trifluoroethyl)-4,5-dihydro-1H-pyrrolo[3,2-c]pyridin-3-yl)amino)-N-(methyl-d3)nicotinamide], for which the IC50 in experiment [1] worked out at 0.000158 µM; in experiment [2], 0.0112 µM. Besides, the JAK1/TYK2 selectivity in experiment [1] was found to be 70.8. For the same compound, the GI50 in experiment [3] is 0.0526 µM.

Consider `[2H]C([2H])([2H])NC(=O)c1cnc(Nc2ccn(C)n2)cc1Nc1ccn2ncc(C#N)c2c1OC` [Example 240, 4-((3-Cyano-4-methoxypyrazolo[1,5-a]pyridin-5-yl)amino)-N-(methyl-d3)-6-((1-methyl-1H-pyrazol-3-yl)amino)nicotinamide], for which the figures for the IC50 in experiment [1] and in experiment [2] were 0.00026 µM and 0.00507 µM, respectively. In addition, the JAK1/TYK2 selectivity in experiment [1] is 19.5. Besides, the GI50 in experiment [3] was 0.0707 µM.

On to `[2H]C([2H])([2H])NC(=O)c1cnc(NC(=O)CC)cc1Nc1ccc2cnn(CC)c2c1OC` [Example 229, 4-((1-Ethyl-7-methoxy-1H-indazol-6-yl)amino)-N-(methyl-d3)-6-propionamidonicotinamide], for which the IC50 in experiment [1] stood at 0.00168 µM; in experiment [2], 0.105 µM. The JAK1/TYK2 selectivity in experiment [1] worked out at 62.5. Besides, the GI50 in experiment [3] was 0.565 µM.

Consider `[2H]C([2H])([2H])NC(=O)c1cnc(NC(=O)C2CC2)cc1Nc1ccn2ncc(C(C)C#N)c2c1OC` (single isomer, unassigned) [Example 251B, (S*)-4-((3-(1-cyanoethyl)-4-methoxypyrazolo[1,5-a]pyridin-5-yl)amino)-6-(cyclopropanecarboxamido)-N-(methyl-d3)nicotinamide], for which the results for the IC50 in experiment [1] and in experiment [2] were 0.000266 µM and 0.0046 µM, respectively. For the same compound, the JAK1/TYK2 selectivity in experiment [1] came to 17.30. In experiment [3], the GI50 was determined as 0.103 µM.

Turning to `[2H]C([2H])([2H])NC(=O)c1cnc(NC(=O)C2CC2)cc1Nc1ccn2ncc(C3CC3)c2c1OC` [Example 250, 6-(Cyclopropanecarboxamido)-4-((3-cyclopropyl-4-methoxypyrazolo[1,5-a]pyridin-5-yl)amino)-N-(methyl-d3)nicotinamide], in experiment [1], the half-maximal inhibitory concentration (IC50) was found to be 0.000233 µM and the JAK1/TYK2 selectivity came to 30.19. The same compound displayed an IC50 in experiment [2] of 0.00704 µM. Also, the GI50 in experiment [3] is 0.16 µM.

As for `CCn1ccc2c(c(Nc3cc(NC(=O)C4CC4)ncc3C(=O)NC)cn2C2CC2)c1=O` [Example 245, 6-(Cyclopropanecarboxamido)-4-((1-cyclopropyl-5-ethyl-4-oxo-4,5-dihydro-1H-pyrrolo[3,2-c]pyridin-3-yl)amino)-N-methylnicotinamide], in experiment [1], the IC50 worked out at 0.000157 µM and the JAK1/TYK2 selectivity is 27.7. This compound registered a concentration for half-maximal inhibition (IC50) in experiment [2] of 0.00434 µM. In experiment [3], the GI50 was determined as 0.0564 µM.

Consider `[2H]C([2H])([2H])NC(=O)c1cnc(NC(=O)C2CC2)cc1Nc1ccn2nccc2c1OC` [Example 258, 6-(Cyclopropanecarboxamido)-4-((4-methoxypyrazolo[1,5-a]pyridin-5-yl)amino)-N-(methyl-d3)nicotinamide], for which, in experiment [1], the IC50 was 0.000834 µM and the JAK1/TYK2 selectivity was 17.9. Further, in experiment [2], the IC50 is 0.0149 µM. Also, the GI50 in experiment [3] was 0.205 µM.

With `[2H]C([2H])([2H])NC(=O)c1cnc(NC(=O)C2CCC2)cc1Nc1ccc2cnn(CC)c2c1OC` [Example 242, 6-(Cyclobutanecarboxamido)-4-((1-ethyl-7-methoxy-1H-indazol-6-yl)amino)-N-(methyl-d3)nicotinamide], in experiment [1], the IC50 was found to be 0.00118 µM and the JAK1/TYK2 selectivity was found to be 38.5. In addition, in experiment [2], the concentration for half-maximal inhibition (IC50) amounted to 0.0453 µM. Besides, the GI50 in experiment [3] was 0.404 µM.

In the case of `CCNC(=O)c1cnc(NC(=O)C2CC2)cc1Nc1ccc2cnn(CC)c2c1OC` [Example 97, 6-(Cyclopropanecarboxamido)-N-ethyl-4-((1-ethyl-7-methoxy-1H-indazol-6-yl)amino)nicotinamide], the IC50 was 0.00438 µM in experiment [1] and > 0.299 µM in experiment [2]. For the same compound, the GI50 in experiment [3] came to 1.27 µM.

Take `[2H]C([2H])([2H])NC(=O)c1cnc(NC(=O)C2CC(C)C2)cc1Nc1ccc2cnn(CC)c2c1OC` (stereo not drawn) [Example 236, 4-((1-Ethyl-7-methoxy-1H-indazol-6-yl)amino)-N-(methyl-d3)-6-(3-methylcyclobutane-1-carboxamido)nicotinamide]: in experiment [1], the IC50 was 0.000969 µM and the JAK1/TYK2 selectivity is recorded as 45.2. The compound further gave an IC50 in experiment [2] of 0.0438 µM. Moreover, in experiment [3], the GI50 worked out at 0.892 µM.

On to `[2H]C([2H])([2H])NC(=O)c1cnc(Nc2ccn(C)n2)cc1Nc1ccn2ncc(C)c2c1OC` [Example 255, 4-((4-Methoxy-3-methylpyrazolo[1,5-a]pyridin-5-yl)amino)-N-(methyl-d3)-6-((1-methyl-1H-pyrazol-3-yl)amino)nicotinamide], for which the figures for the IC50 in experiment [1] and in experiment [2] were 0.000323 µM and 0.00442 µM, respectively. Also, the JAK1/TYK2 selectivity in experiment [1] is 13.7. Moreover, the GI50 in experiment [3] amounted to 0.116 µM.

As usually defined, the IC50 is the midpoint of a concentration-inhibition curve. The low end stands for inhibition by little substance, the high end for a need for much substance.
